Test results taken from US20260035364A1, “BICYCLIC TETRAHYDROTHIAZEPINE DERIVATIVES” (Hoffmann-La Roche Inc., priority 2022, published 2026).

Columns and labels:
DGKalpha = DGKalpha (Homo sapiens, UniProt P23743); test: In vitro DGK inhibition assay (ADP-Glo, liposomes), DGKalpha; type: biochemical; set-up: hDGKalpha(1-735)-N-His; His (N); made in house; host or cells: Sf21 insect cells (baculovirus); settings: 4 nM DGK α, 25 μM ATP, 125 uM DLG in liposomes, 1 hour reaction
Outline: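 Full-length human DGKα (4 nM) or DGKζ (2 nM) from Sf21 cells, with DLG substrate at 125 uM in PS/PC liposomes and ATP at 25 μM (α) or 50 μM (ζ); 1 h reaction. ADP formed read by ADP-Glo luminescence; compounds 11-point, 1:3 dilutions from 10 mM, 2% DMSO final.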

DGKzeta = DGKzeta (Homo sapiens, UniProt Q13574); test: In vitro DGK inhibition assay (ADP-Glo, liposomes), DGKzeta; type: biochemical; set-up: hDGKzeta(1-928)-N-His; His (N); made in house; host or cells: Sf21 insect cells (baculovirus); settings: 2 nM DGK ζ, 50 μM ATP, 125 uM DLG in liposomes, 1 hour reaction
Sequence of DGKzeta (Q13574 whole entry): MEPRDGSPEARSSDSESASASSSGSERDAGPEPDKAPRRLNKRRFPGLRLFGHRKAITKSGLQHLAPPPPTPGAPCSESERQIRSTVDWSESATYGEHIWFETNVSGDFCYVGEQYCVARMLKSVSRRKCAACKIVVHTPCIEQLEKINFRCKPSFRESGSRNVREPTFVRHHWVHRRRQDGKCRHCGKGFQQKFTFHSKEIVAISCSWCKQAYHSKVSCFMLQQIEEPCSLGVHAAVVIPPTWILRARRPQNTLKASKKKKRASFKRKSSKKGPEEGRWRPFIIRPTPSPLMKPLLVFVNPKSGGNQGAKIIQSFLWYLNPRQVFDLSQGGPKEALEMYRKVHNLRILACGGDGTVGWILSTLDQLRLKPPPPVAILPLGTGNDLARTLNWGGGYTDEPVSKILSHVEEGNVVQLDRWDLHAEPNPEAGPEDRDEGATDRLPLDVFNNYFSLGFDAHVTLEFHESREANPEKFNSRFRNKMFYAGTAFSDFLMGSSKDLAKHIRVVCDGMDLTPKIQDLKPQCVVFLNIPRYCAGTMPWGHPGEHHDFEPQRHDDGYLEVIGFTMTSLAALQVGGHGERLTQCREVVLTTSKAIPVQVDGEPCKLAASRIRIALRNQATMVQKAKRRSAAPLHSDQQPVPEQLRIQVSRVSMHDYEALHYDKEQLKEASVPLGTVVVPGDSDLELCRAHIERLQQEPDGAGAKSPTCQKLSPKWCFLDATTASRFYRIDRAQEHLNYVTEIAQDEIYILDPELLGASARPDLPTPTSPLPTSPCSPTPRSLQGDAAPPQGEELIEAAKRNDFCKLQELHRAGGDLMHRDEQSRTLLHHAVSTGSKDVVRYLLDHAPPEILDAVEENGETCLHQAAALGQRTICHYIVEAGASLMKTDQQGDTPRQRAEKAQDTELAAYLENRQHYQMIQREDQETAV
Outline: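 DGKζ (2 nM) phosphorylated DLG presented in DLG/PS/PC liposomes (final DLG 125 μM) with 50 μM ATP for 1 hour. ADP formed was read by ADP-Glo luminescence. Compounds were tested as 11-point 1:3 dose responses in 2% final DMSO.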

primary human T-cells = test: IL2 secretion measurements in CD3-stimulated T-cells; type: cell-based; settings: Homo sapiens, T-cell, 24 h, CD3 condition; for Emax: IL2 after 24 hours, 20 μM reference compound A1 = 100%, read-out: Emax IL2 (% activation); for EC50: IL2 secretion after 24 hours, read-out: Tcell IL2 CD3 EC50
Outline: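 Expanded primary human T-cells (100k/well) were stimulated on CD3 antibody-coated or PBS-coated plates with compounds in 5–6 point dose response from 20 or 10 μM top final (dilution factor 3.333, 0.2% DMSO final). IL2 in 24 h supernatants was measured by ProQuantum immunoassay or ELISA, normalized to DMSO (0%) and 20 μM reference compound A1 (100%) to fit EC50 and Emax.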

Sequence of DGKalpha (P23743 whole entry): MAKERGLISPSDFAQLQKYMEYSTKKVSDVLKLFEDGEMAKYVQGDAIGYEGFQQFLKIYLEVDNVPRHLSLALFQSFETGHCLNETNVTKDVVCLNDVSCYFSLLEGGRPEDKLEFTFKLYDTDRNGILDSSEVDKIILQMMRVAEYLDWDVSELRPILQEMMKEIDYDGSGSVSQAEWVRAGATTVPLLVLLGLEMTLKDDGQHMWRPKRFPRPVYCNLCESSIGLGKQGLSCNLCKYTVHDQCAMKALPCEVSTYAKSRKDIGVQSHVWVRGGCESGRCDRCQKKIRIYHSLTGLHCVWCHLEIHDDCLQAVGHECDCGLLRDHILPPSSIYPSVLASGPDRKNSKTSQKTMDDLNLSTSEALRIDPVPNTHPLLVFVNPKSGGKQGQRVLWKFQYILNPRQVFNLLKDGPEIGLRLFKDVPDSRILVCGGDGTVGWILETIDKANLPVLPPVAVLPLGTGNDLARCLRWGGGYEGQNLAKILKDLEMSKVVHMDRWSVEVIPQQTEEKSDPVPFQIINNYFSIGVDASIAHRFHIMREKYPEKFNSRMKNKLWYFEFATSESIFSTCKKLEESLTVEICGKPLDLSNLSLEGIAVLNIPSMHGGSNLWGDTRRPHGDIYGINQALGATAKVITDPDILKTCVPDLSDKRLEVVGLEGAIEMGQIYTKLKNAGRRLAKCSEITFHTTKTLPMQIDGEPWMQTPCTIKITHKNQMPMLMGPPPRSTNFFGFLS

SMILES	IC50 (DGKalpha) [nM]	IC50 (DGKzeta) [nM]	Emax (primary human T-cells) [%]	EC50 (primary human T-cells) [nM]
COc1ccc(-c2ccc(CN3C(=O)[C@@H](N)CS(=O)(=O)c4cc(F)c(-c5nnc(C(C)(C)S(C)(=O)=O)o5)cc43)cc2)cc1 [Example 29, (3R)-3-amino-8-fluoro-5-[[4-(4-methoxyphenyl)phenyl]methyl]-7-[5-(1-methyl-1-methylsulfonyl-ethyl)-1,3,4-oxadiazol-2-yl]-1,1-dioxo-2,3-dihydro-1λ6,5-benzothiazepin-4-one]	534	251	284	431
CC(C)(c1nc(-c2cc3c(cc2F)S(=O)(=O)C[C@H](N)C(=O)N3Cc2ccc(Oc3ccccc3)cc2)no1)S(C)(=O)=O [Example 30, (3R)-3-amino-8-fluoro-7-[5-(1-methyl-1-methylsulfonyl-ethyl)-1,2,4-oxadiazol-3-yl]-1,1-dioxo-5-[(4-phenoxyphenyl)methyl]-2,3-dihydro-1λ6,5-benzothiazepin-4-one]	815	309	265	485
Cc1cccc(Oc2ccc(CN3C(=O)[C@@H](N)CS(=O)(=O)c4ccc(-c5nnc(C(C)(C)S(C)(=O)=O)o5)cc43)cc2)c1 [Example 31]	1780	455	176	745
CC(C)(c1nnc(-c2ccc3c(c2)N(Cc2ccc(Oc4cccc(Cl)c4Cl)cc2)C(=O)[C@@H](N)CS3(=O)=O)o1)S(C)(=O)=O [Example 32, (3R)-3-amino-5-[[4-(2,3-dichlorophenoxy)phenyl]methyl]-7-[5-(1-methyl-1-methylsulfonyl-ethyl)-1,3,4-oxadiazol-2-yl]-1,1-dioxo-2,3-dihydro-1λ6,5-benzothiazepin-4-one]	13400	893	82	1100
CC(C)(c1nnc(-c2ccc3c(c2)N(Cc2ccc(Oc4cccc(F)c4)cc2)C(=O)[C@@H](N)CS3(=O)=O)o1)S(C)(=O)=O [Example 33, (3R)-3-amino-5-[[4-(3-fluorophenoxy)phenyl]methyl]-7-[5-(1-methyl-1-methylsulfonyl-ethyl)-1,3,4-oxadiazol-2-yl]-1,1-dioxo-2,3-dihydro-1λ6,5-benzothiazepin-4-one]	4750	539	58	580
CC(C)(c1nnc(-c2ccc3c(c2)N(Cc2ccc(Oc4cccc(Cl)c4)cc2)C(=O)[C@@H](N)CS3(=O)=O)o1)S(C)(=O)=O [Example 34, (3R)-3-amino-5-[[4-(3-chlorophenoxy)phenyl]methyl]-7-[5-(1-methyl-1-methylsulfonyl-ethyl)-1,3,4-oxadiazol-2-yl]-1,1-dioxo-2,3-dihydro-1λ6,5-benzothiazepin-4-one]	20300	1100	89	1000
CC(C)(c1nnc(-c2cc3c(cc2F)S(=O)(=O)C[C@H](N)C(=O)N3Cc2ccc(-c3ccc(C(F)(F)F)cc3)cc2)o1)S(C)(=O)=O [Example 35, (3R)-3-amino-8-fluoro-7-[5-(1-methyl-1-methylsulfonyl-ethyl)-1,3,4-oxadiazol-2-yl]-1,1-dioxo-5-[[4-[4-(trifluoromethyl)phenyl]phenyl]methyl]-2,3-dihydro-1λ6,5-benzothiazepin-4-one]	1220	649	239	43
CC(C)(c1nnc(-c2cc3c(cc2F)S(=O)(=O)C[C@H](N)C(=O)N3Cc2ccc(-c3ccc(C(F)(F)F)nc3)cc2)o1)S(C)(=O)=O [Example 36]	1590	414	61	637
CC(C)(c1nnc(-c2ccc3c(c2)N(Cc2ccc(Oc4ccc(F)c(Cl)c4)cc2)C(=O)[C@@H](N)CS3(=O)=O)o1)S(C)(=O)=O [Example 37, (3R)-3-amino-5-[[4-(3-chloro-4-fluoro-phenoxy)phenyl]methyl]-7-[5-(1-methyl-1-methylsulfonyl-ethyl)-1,3,4-oxadiazol-2-yl]-1,1-dioxo-2,3-dihydro-1λ6,5-benzothiazepin-4-one]	11100	414	135	8140
CC(C)(c1nnc(-c2ccc3c(c2)N(Cc2ccc(Oc4cccc(C(F)(F)F)c4)cc2)C(=O)[C@@H](N)CS3(=O)=O)o1)S(C)(=O)=O [Example 38]	3230	1280	155	424
CC(C)(c1nnc(-c2ccc3c(c2)N(Cc2ccc(Oc4cc(F)cc(C(F)(F)F)c4)cc2)C(=O)[C@@H](N)CS3(=O)=O)o1)S(C)(=O)=O [Example 39]	34900	2630	106	813
CC(C)(c1nnc(-c2ccc3c(c2)N(Cc2ccc(Oc4cccc(OC(F)(F)F)c4)cc2)C(=O)[C@@H](N)CS3(=O)=O)o1)S(C)(=O)=O [Example 40, (3R)-3-amino-7-[5-(1-methyl-1-methylsulfonyl-ethyl)-1,3,4-oxadiazol-2-yl]-1,1-dioxo-5-[[4-[3-(trifluoromethoxy)phenoxy]phenyl]methyl]-2,3-dihydro-126,5-benzothiazepin-4-one]	1970	893	196	801
COc1cc(Cl)cc(Oc2ccc(CN3C(=O)[C@@H](N)CS(=O)(=O)c4ccc(-c5nnc(C(C)(C)S(C)(=O)=O)o5)cc43)cc2)c1 [Example 41, (3R)-3-amino-5-[[4-(3-chloro-5-methoxy-phenoxy)phenyl]methyl]-7-[5-(1-methyl-1-methylsulfonyl-ethyl)-1,3,4-oxadiazol-2-yl]-1,1-dioxo-2,3-dihydro-1λ6,5-benzothiazepin-4-one]	41000	2290	115	1460
COc1cccc(Oc2ccc(CN3C(=O)[C@@H](N)CS(=O)(=O)c4ccc(-c5nnc(C(C)(C)S(C)(=O)=O)o5)cc43)cc2)c1 [Example 42]	1160	413	125	3130
CC(C)(c1nc(-c2cc3c(cc2F)S(=O)(=O)C[C@H](N)C(=O)N3Cc2ccc(Cl)cc2)no1)S(C)(=O)=O [Example 43, (3R)-3-amino-5-[(4-chlorophenyl)methyl]-8-fluoro-7-[5-(1-methyl-1-methylsulfonyl-ethyl)-1,2,4-oxadiazol-3-yl]-1,1-dioxo-2,3-dihydro-1λ6,5-benzothiazepin-4-one]	640	192	163	131
CC(C)(c1nc(-c2cc3c(cc2F)S(=O)(=O)C[C@H](N)C(=O)N3Cc2ccc(OC(F)(F)F)cc2)no1)S(C)(=O)=O [Example 44, (3R)-3-amino-8-fluoro-7-[5-(1-methyl-1-methylsulfonyl-ethyl)-1,2,4-oxadiazol-3-yl]-1,1-dioxo-5-[[4-(trifluoromethoxy)phenyl]methyl]-2,3-dihydro-1λ6,5-benzothiazepin-4-one]	683	317	192	325
CC(C)(c1nc(-c2cc3c(cc2F)S(=O)(=O)C[C@H](N)C(=O)N3Cc2ccc(-c3noc(C4CC4)n3)cc2)no1)S(C)(=O)=O [Example 45, (3R)-3-amino-5-[[4-(5-cyclopropyl-1,2,4-oxadiazol-3-yl)phenyl]methyl]-8-fluoro-7-[5-(1-methyl-1-methylsulfonyl-ethyl)-1,2,4-oxadiazol-3-yl]-1,1-dioxo-2,3-dihydro-1λ6,5-benzothiazepin-4-one]	818	98	190	195
CC(C)(c1nc(-c2cc3c(cc2F)S(=O)(=O)C[C@H](N)C(=O)N3Cc2ccc(-c3noc(C(F)(F)F)n3)cc2)no1)S(C)(=O)=O [Example 46, (3R)-3-amino-8-fluoro-7-[5-(1-methyl-1-methylsulfonyl-ethyl)-1,2,4-oxadiazol-3-yl]-1,1-dioxo-5-[[4-[5-(trifluoromethyl)-1,2,4-oxadiazol-3-yl]phenyl]methyl]-2,3-dihydro-1λ6,5-benzothiazepin-4-one]	1100	256	317	491
CC(C)(c1nnc(-c2ccc3c(c2)N(Cc2ccc(Oc4cccc(OC(F)F)c4)cc2)C(=O)[C@@H](N)CS3(=O)=O)o1)S(C)(=O)=O [Example 47, (3R)-3-amino-5-[[4-[3-(difluoromethoxy)phenoxy]phenyl]methyl]-7-[5-(1-methyl-1-methylsulfonyl-ethyl)-1,3,4-oxadiazol-2-yl]-1,1-dioxo-2,3-dihydro-1λ6,5-benzothiazepin-4-one]	1100	468	135	1370
